Source: patent US6444615B1, “Herbicidal imidazolidinetrione and thioxo-imidazolidinediones” (Dow AgroSciences LLC, priority 2000, dated 2002)

Columns and labels:
[1] = system: Velvetleaf (Abutilon theophrasti); test: Herbicidal pre-emergence test, Velvetleaf; format: in vivo; details: 1200 g/ha, scale of 0-100, 0 no activity, 100 total control, about two or four weeks after application
Experimental: (§1) Listed below, a typical planting design for the test, consisting of four monocot weeds, four dicot weeds and one sedge weed. [table] For each compound, evaluation tests were carried out according to the following procedures: For preemergence tests, immediately after planting, the test compound was sprayed directly onto the soil surface. The flats or pots were placed in the greenhouse and then watered. For postemergence tests, seeds were allowed to germinate and grow for 10 to 21 days before application. The test plants were selected for uniformity, size and stage of development. The test plants were then treated with the test compound, returned to the greenhouse and watered. Untreated plants were used as a comparison. The compound to be evaluated was dissolved in an appropriate solvent, usually acetone, or a formulation of the evaluated compounds as described above, was added to the water, and sprayed over the flats or pots using a carrier volume equivalent to 187 or 468 liters per hectare to give a rate of application in grams per hectare (g/ha). About two or four weeks after application of the test compounds, the state of the plant was observed. Each species was evaluated on a scale of 0-100 in which 0 equals no activity and 100 equals total control.

[2] = system: Smartweed, (pale) (Polygonum lapathifolium); test: Herbicidal post-emergence test, Smartweed (pale); format: in vivo; details: 1200 g/ha, scale of 0-100, 0 no activity, 100 total control, about two or four weeks after application
Experimental: as §1

[3] = system: Nutsedge, (yellow) (Cyperus esculentus); test: Herbicidal post-emergence test, Nutsedge (yellow); format: in vivo; details: 1200 g/ha, scale of 0-100, 0 no activity, 100 total control, about two or four weeks after application
Experimental: as §1

[4] = system: Barnyardgrass (Echinochloa crusgalli); test: Herbicidal pre-emergence test, Barnyardgrass; format: in vivo; details: 1200 g/ha, scale of 0-100, 0 no activity, 100 total control, about two or four weeks after application
Experimental: as §1

[5] = system: Nightshade, (black) (Solanum nigrum); test: Herbicidal pre-emergence test, Nightshade (black); format: in vivo; details: 1200 g/ha, scale of 0-100, 0 no activity, 100 total control, about two or four weeks after application
Experimental: as §1

[6] = system: Crabgrass (large) (Digitaria sanguinalis); test: Herbicidal post-emergence test, Crabgrass (large); format: in vivo; details: 1200 g/ha, scale of 0-100, 0 no activity, 100 total control, about two or four weeks after application
Experimental: as §1

[7] = system: Hairy Beggarticks (Bidens pilosa); test: Herbicidal pre-emergence test, Hairy Beggarticks; format: in vivo; details: 1200 g/ha, scale of 0-100, 0 no activity, 100 total control, about two or four weeks after application
Experimental: as §1

[8] = system: Nightshade, (black) (Solanum nigrum); test: Herbicidal post-emergence test, Nightshade (black); format: in vivo; details: 1200 g/ha, scale of 0-100, 0 no activity, 100 total control, about two or four weeks after application
Experimental: as §1

[9] = system: Barnyardgrass (Echinochloa crusgalli); test: Herbicidal post-emergence test, Barnyardgrass; format: in vivo; details: 1200 g/ha, scale of 0-100, 0 no activity, 100 total control, about two or four weeks after application
Experimental: as §1

[10] = system: Perennial Ryegrass (Lolium perenne); test: Herbicidal post-emergence test, Perennial Ryegrass; format: in vivo; details: 1200 g/ha, scale of 0-100, 0 no activity, 100 total control, about two or four weeks after application
Experimental: as §1

[11] = system: Hairy Beggarticks (Bidens pilosa); test: Herbicidal post-emergence test, Hairy Beggarticks; format: in vivo; details: 1200 g/ha, scale of 0-100, 0 no activity, 100 total control, about two or four weeks after application
Experimental: as §1

[12] = system: Velvetleaf (Abutilon theophrasti); test: Herbicidal post-emergence test, Velvetleaf; format: in vivo; details: 1200 g/ha, scale of 0-100, 0 no activity, 100 total control, about two or four weeks after application
Experimental: as §1

[13] = system: Smartweed, (pale) (Polygonum lapathifolium); test: Herbicidal pre-emergence test, Smartweed (pale); format: in vivo; details: 1200 g/ha, scale of 0-100, 0 no activity, 100 total control, about two or four weeks after application
Experimental: as §1

[14] = system: Foxtail, (green) (Setaria viridis); test: Herbicidal post-emergence test, Foxtail (green); format: in vivo; details: 1200 g/ha, scale of 0-100, 0 no activity, 100 total control, about two or four weeks after application
Experimental: as §1

[15] = system: Foxtail, (green) (Setaria viridis); test: Herbicidal pre-emergence test, Foxtail (green); format: in vivo; details: 1200 g/ha, scale of 0-100, 0 no activity, 100 total control, about two or four weeks after application
Experimental: as §1

[16] = system: Perennial Ryegrass (Lolium perenne); test: Herbicidal pre-emergence test, Perennial Ryegrass; format: in vivo; details: 1200 g/ha, scale of 0-100, 0 no activity, 100 total control, about two or four weeks after application
Experimental: as §1

[17] = system: Nutsedge, (yellow) (Cyperus esculentus); test: Herbicidal pre-emergence test, Nutsedge (yellow); format: in vivo; details: 1200 g/ha, scale of 0-100, 0 no activity, 100 total control, about two or four weeks after application
Experimental: as §1

[18] = system: Crabgrass (large) (Digitaria sanguinalis); test: Herbicidal pre-emergence test, Crabgrass (large); format: in vivo; details: 1200 g/ha, scale of 0-100, 0 no activity, 100 total control, about two or four weeks after application
Experimental: as §1

| SMILES | melting point [°C] | Herbicidal Activity VEL (pre-emergence) [1] | Herbicidal Activity SMT (post-emergence) [2] | Herbicidal Activity NUT (post-emergence) [3] | Herbicidal Activity BYG (pre-emergence) [4] | Herbicidal Activity NS (pre-emergence) [5] | Herbicidal Activity CRB (post-emergence) [6] | Herbicidal Activity BID (pre-emergence) [7] | Herbicidal Activity NS (post-emergence) [8] | Herbicidal Activity BYG (post-emergence) [9] | Herbicidal Activity RYE (post-emergence) [10] | Herbicidal Activity BID (post-emergence) [11] | Herbicidal Activity VEL (post-emergence) [12] | Herbicidal Activity SMT (pre-emergence) [13] | Herbicidal Activity FOX (post-emergence) [14] | Herbicidal Activity FOX (pre-emergence) [15] | Herbicidal Activity RYE (pre-emergence) [16] | Herbicidal Activity NUT (pre-emergence) [17] | Herbicidal Activity CRB (pre-emergence) [18] |
| --- | --- | --- | --- | --- | --- | --- | --- | --- | --- | --- | --- | --- | --- | --- | --- | --- | --- | --- | --- |
| O=C1NC(=O)N(C2(OC3CC(F)CC3Cl)C=CC=CC2)C1=O (centres unmarked) [Compound 2, 1-(2-fluoro-4-chloro-5-cyclopentyloxy)phenyl-2,4,5-imidazolidinetrione] | 130 to 140 |  |  |  |  |  |  |  |  |  |  |  |  |  |  |  |  |  |  |
| C#CCN1C(=O)COc2cc(F)c(N3C(=O)C(=O)N(CCC)C3=O)cc21 [Compound 23, 1-n-propyl-3-[7-fluoro-4-(2-propynyl)-2ZH-1,4-benzoxazin-3(4H)-one-6-]-2,4,5-imidazlidinetrione] |  | 100/100 | 95 | 40 | 100 | 100/100 | 0 | 100 | 100/100 | 60 | 0 | 95 | 100/100 | 100 | 60 | 100 | 90 | 95 | 100 |
| C=CCOc1cc(N2C(=O)C(=O)N(C)C2=O)c(F)cc1Cl [Compound 15] |  | 0 | 80 | 0/0 | 0 | 0 | 30 | 0 | 85 | 30 | 0/0 | 85 | 90 | 0 | 30 | 0 | 0/0 | 0/0 | 0 |
| C#CCN1C(=O)COc2cc(F)c(N3C(=O)C(=O)N(CCC)C3=S)cc21 [Compound 25] |  | 100/100 | 100/100 | 40 | 100 | 100/100 | 30 | 100/100 | 100/100 | 30 | 0 | 100/100 | 100/100 | 100/100 | 60 | 100 | 85 | 80 | 100 |
| COC(=O)c1cc(N2C(=O)C(=O)N(C(C)C)C2=O)c(F)cc1Cl [Compound 18, 1-(2-fluoro-4-chloro-5-methoxycarbonylphenyl)-3-isopropyl-2,4,5-imidazolidinetrione] |  | 0 | 95 | 0/0 | 0 | 100 | 30 | 100/100 | 95 | 40 | 0/0 | 100/100 | 95 | 40 | 60 | 0 | 0/0 | 0/0 | 0 |
| C=CCOc1cc(N2C(=O)C(=O)N(CCCC)C2=O)c(F)cc1Cl [Compound 16] |  | 0 | 80 | 0/0 | 0/0 | 0 | 0/0 | 0 | 100 | 0/0 | 0/0 | 95 | 100 | 0 | 60 | 0 | 0/0 | 0/0 | 0/0 |
| CCOC(=O)COc1cc(N2C(=O)C(=O)N(C)C2=O)c(F)cc1Cl [Compound 17] |  | 0/0 | 0 | 0/0 | 0/0 | 30 | 0/0 | 0/0 | 0 | 0/0 | 0 | 0/0 | 0/0 | 30 | 0/0 | 0/0 | 30 | 0/0 | 0/0 |
| CCCCN1C(=O)C(=O)N(c2cc(OC3CCCC3)c(Cl)cc2F)C1=O [Compound 10] |  | 0 | 30 | 30 | 0 | 0 | 20 | 0 | 100 | 40 | 30 | 60 | 100 | 0 | 80 | 0 | 0 | 0 | 0 |
| COCC1(N2C(=O)NC(=O)C2=O)C=CC=C(OC2CC(F)CC2Cl)C1 (centres unmarked) [Compound 5, 1-methoxymethyl-3-(2-fluoro-4-chloro-5-cyclopentyloxy)phenyl-2,4,5-imidazolidinetrione] | 90 to 91 |  |  |  |  |  |  |  |  |  |  |  |  |  |  |  |  |  |  |
| C#CCN1C(=O)COc2cc(F)c(N3C(=O)C(=O)N(CC(F)(F)F)C3=O)cc21 [Compound 24] |  | 0 | 40 | 0/0 | 0/0 | 0 | 0/0 | 0 | 60 | 0/0 | 0/0 | 40 | 60 | 0 | 0/0 | 0/0 | 0/0 | 0/0 | 0/0 |
